Assay results from patent US20220056019A1, “FARNESOID X RECEPTOR AGONISTS AND USES THEREOF” (Metacrine, Inc., priority 2018, published 2022).

Molecular target: T1, hFXR (Homo sapiens, UniProt Q96RI1)
T1 construct: expressed in transfected cells; host or cells: CV-1 cells
T1 sequence (Q96RI1 1-486): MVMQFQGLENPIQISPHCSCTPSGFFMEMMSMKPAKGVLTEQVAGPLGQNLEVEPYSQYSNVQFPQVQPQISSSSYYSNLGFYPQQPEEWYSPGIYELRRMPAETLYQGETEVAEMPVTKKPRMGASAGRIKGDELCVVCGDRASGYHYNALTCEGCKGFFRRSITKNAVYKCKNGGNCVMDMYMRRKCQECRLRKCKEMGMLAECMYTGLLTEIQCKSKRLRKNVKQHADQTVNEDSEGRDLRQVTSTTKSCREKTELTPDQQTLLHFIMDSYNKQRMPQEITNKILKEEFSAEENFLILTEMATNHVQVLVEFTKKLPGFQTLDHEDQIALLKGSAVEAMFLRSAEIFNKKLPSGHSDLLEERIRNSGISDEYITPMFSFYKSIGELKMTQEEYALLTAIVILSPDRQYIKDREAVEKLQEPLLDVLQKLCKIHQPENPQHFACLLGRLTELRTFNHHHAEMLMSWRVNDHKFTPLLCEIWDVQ
T1 sequence (P19793 1-462 partner): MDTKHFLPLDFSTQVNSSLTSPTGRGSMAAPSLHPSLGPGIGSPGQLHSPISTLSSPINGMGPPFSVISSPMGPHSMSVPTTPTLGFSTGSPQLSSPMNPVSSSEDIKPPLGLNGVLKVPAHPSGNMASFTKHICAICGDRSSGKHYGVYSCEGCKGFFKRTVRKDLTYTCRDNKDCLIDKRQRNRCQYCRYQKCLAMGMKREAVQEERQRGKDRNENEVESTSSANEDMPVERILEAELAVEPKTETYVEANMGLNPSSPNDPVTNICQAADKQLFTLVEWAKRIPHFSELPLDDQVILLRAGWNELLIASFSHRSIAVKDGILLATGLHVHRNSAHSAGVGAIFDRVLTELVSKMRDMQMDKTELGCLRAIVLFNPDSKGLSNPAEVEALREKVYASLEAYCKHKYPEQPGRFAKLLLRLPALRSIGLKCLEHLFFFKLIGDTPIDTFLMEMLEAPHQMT
Experiment: In Vitro FXR Assay (TK): TK-ECRE-luc reporter in transfected CV-1 cells
Format: cell-based
Settings: 18 hrs incubation, luminescence
Summary of the method: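 CV-1 cells in DMEM with 10% charcoal-stripped FBS were transiently co-transfected with hFXR, hRXR, TK-ECRE-luc reporter and pCMX-YFP plasmids over 18 h at 37 °C. Compounds serially diluted in DMSO were added for 18 h; cells were then lysed and luciferase luminescence measured.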

EC50 | SMILES
≤ 50 nM | COc1ccc(C23CCC(CN(c4cc(-c5cnn(C6(C)CCC6)c5)ccn4)C(=O)[C@H]4CC[C@H](OC(=O)N5CC(CS(C)(=O)=O)C5)CC4)(CC2)CC3)cc1C [Compound 25.20, 4-(((4-(4-Methoxy-3-methylphenyl)bicyclo[2.2.2]octan-1-yl)methyl)(4-(1-(1-methylcyclobutyl)-1H-pyrazol-4-yl)pyridin-2-yl)carbamoyl)(trans-cyclohexyl) 3-((methysulfonyl)methyl)azetidine-1-carboxylate]
≤ 50 nM | COc1ccc(C23CCC(CN(c4cc(-c5cnn(C(C)C)c5)c(F)cn4)C(=O)[C@H]4CC[C@H](OC(=O)N5CC(CO)C5)CC4)(CC2)CC3)cc1C [Compound 25.06, 4-((5-Fluoro-4-(1-isopropyl-1H-pyrazol-4-yl)pyridin-2-yl)((4-(4-methoxy-3-methylphenyl)bicyclo[2.2.2]octan-1-yl)methyl)carbamoyl)cyclohexyl trans-3-(hydroxymethyl)azetidine-1-carboxylate]
≤ 50 nM | COc1ccc(C23CCC(CN(c4cc(-c5cnn(C(C)C)c5)cc(Cl)n4)C(=O)[C@H]4CC[C@H](OC(=O)N5CC(O)C5)CC4)(CC2)CC3)cc1C [Compound 4.40, 4-((6-Chloro-4-(1-isopropyl-1H-pyrazol-4-yl)pyridin-2-yl)((4-(4-methoxy-3-methylphenyl)bicyclo[2.2.2]octan-1-yl)methyl)carbamoyl) cyclohexyl trans-3-hydroxyazetidine-1-carboxylate]
≤ 50 nM | COc1ccc([C@H]2CC[C@H](CN(c3cc(-c4coc(C5CC5)n4)ccn3)C(=O)[C@H]3CC[C@H](OC(=O)N4CCN(C)CC4)CC3)CC2)cc1Cl [Compound 2.07, trans-4-(((trans-4-(3-Chloro-4-methoxyphenyl)cyclohexyl)methyl)(4-(2-cyclopropyloxazol-4-yl)pyridin-2-yl)carbamoyl)cyclohexyl 4-methylpiperazine-1-carboxylate]
≤ 50 nM | COc1ccc(C23CCC(CN(c4cc(-c5cnn(C(C)C)c5)c(F)cn4)C(=O)[C@H]4CC[C@H](OC(=O)NCCCO)CC4)(CC2)CC3)cc1C [Compound 25.05, 4-((5-Fluoro-4-(1-isopropyl-1H-pyrazol-4-yl)pyridin-2-yl)((4-(4-methoxy-3-methylphenyl)bicyclo[2.2.2]octan-1-yl)methyl)carbamoyl)cyclohexyl trans-(3-hydroxypropyl)carbamate]
≤ 50 nM | CCc1nc(-c2ccnc(N(CC34CCC(c5ccc(OC)c(C)c5)(CC3)CC4)C(=O)[C@H]3CC[C@H](OC(=O)N4CC(CO)C4)CC3)c2)co1 [Compound 4.30, 4-((4-(2-Ethyloxazol-4-yl)pyridin-2-yl)((4-(4-methoxy-3-methylphenyl)bicyclo[2.2.2]octan-1-yl)methyl)carbamoyl)(trans-cyclohexyl) 3-(hydroxymethyl)azetidine-1-carboxylate]
≤ 50 nM | COc1ccc([C@H]2CC[C@H](CN(c3cccc(-c4cnn(C(C)C)c4)c3)C(=O)[C@H]3CC[C@H](OC(=O)N4CCN(C)CC4)CC3)CC2)cc1C#N [Compound 5.08, trans-4-((((trans)-4-(3-Cyano-4-methoxyphenyl)cyclohexyl)methyl)(3-(1-isopropyl-1H-pyrazol-4-yl)phenyl)carbamoyl)cyclohexyl4-methylpiperazine-1-carboxylate]
≤ 50 nM | COc1ccc([C@H]2CC[C@H](CN(c3cc(-c4cnc(C5CC5)o4)ccn3)C(=O)[C@H]3CC[C@H](OC(=O)N4CC(O)C4)CC3)CC2)cc1C [Compound 2.01, trans-4-((4-(2-Cyclopropyloxazol-5-yl)pyridin-2-yl)((trans-4-(4-methoxy-3-methylphenyl)cyclohexyl)methyl)carbamoyl)cyclohexyl 3-hydroxyazetidine-1-carboxylate]
≤ 50 nM | COc1ccc([C@H]2CC[C@H](CN(c3cc(-c4cc(C5CC5)no4)ccn3)C(=O)[C@H]3CC[C@H](OC(=O)N4CC(O)C4)CC3)CC2)cc1C [Compound 2.38, trans-4-((4-(3-Cyclopropylisoxazol-5-yl)pyridin-2-yl)((trans-4-(4-methoxy-3-methylphenyl)cyclohexyl)methyl)carbamoyl)cyclohexyl 3-hydroxyazetidine-1-carboxylate]
≤ 50 nM | COc1ccc(C23CCC(CN(c4cc(-c5cnn(C6CCSCC6)c5)ccn4)C(=O)[C@H]4CC[C@H](OC(=O)N5CC(O)C5)CC4)(CC2)CC3)cc1C [Compound 26.21, 4-(((4-(4-Methoxy-3-methylphenyl)bicyclo[2.2.2]octan-1-yl)methyl)(4-(1-(tetrahydro-2H-thiopyran-4-yl)-1H-pyrazol-4-yl)pyridin-2-yl)carbamoyl)cyclohexyl trans-3-hydroxyazetidine-1-carboxylate]
≤ 50 nM | COc1ccc(C23CCC(CN(c4cc(-c5cnn(C(C)C)c5)ccn4)C(=O)[C@H]4CC[C@H](OC(=O)NCCCCO)CC4)(CC2)CC3)cc1C [Compound 4.50, 4-((4-(1-Isopropyl-1H-pyrazol-4-yl)pyridin-2-yl) ((4-(4-methoxy-3-methylphenyl)bicyclo [2.2.2]octan-1-yl)methyl)carbamoyl)cyclohexyl(4-hydroxybutyl)trans-carbamate]
≤ 50 nM | COc1ccc(C23CCC(CN(c4cc(-c5cnn(C6(C)CCC6)c5)ccn4)C(=O)[C@H]4CC[C@H](OC(=O)NCCCO)CC4)(CC2)CC3)cc1C [Compound 25.17, 4-(((4-(4-Methoxy-3-methylphenyl)bicyclo[2.2.2]octan-1-yl)methyl)(4-(1-(1-methylcyclobutyl)-1H-pyrazol-4-yl)pyridin-2-yl)carbamoyl)(trans-cyclohexyl)(3-hydroxypropyl)carbamate]
≤ 50 nM | CCC1CN(C(=O)O[C@H]2CC[C@H](C(=O)N(CC34CCC(c5ccc(OC)c(C)c5)(CC3)CC4)c3cc(-c4cnn(C(C)C)c4)ccn3)CC2)C1 [Compound 4.54, 4-((4-(1-Isopropyl-1H-pyrazol-4-yl)pyridin-2-yl) ((4-(4-methoxy-3-methylphenyl)bicyclo [2.2.2]octan-1-yl)methyl)carbamoyl)cyclohexyl trans-3-ethylazetidine-1-carboxylate]
≤ 50 nM | COc1ccc([C@H]2CC[C@H](CN(c3cc(-c4cnn(C(C)C)c4)ccn3)C(=O)[C@H]3CC[C@H](OC(=O)NC[C@@H](F)CF)CC3)CC2)cc1C [Compound 2.32, trans-4-((4-(1-Isopropyl-1H-pyrazol-4-yl)pyridin-2-yl)(((trans)-4-(4-methoxy-3-methylphenyl)cyclohexyl)methyl)carbamoyl) cyclohexyl((R)-2,3-difluoropropyl)carbamate]
≤ 50 nM | COc1ccc(C23CCC(CN(c4ccc(F)c(-c5cnn(C(C)C)c5)c4)C(=O)[C@H]4CC[C@H](OC(=O)N5CC(CS(C)(=O)=O)C5)CC4)(CC2)CC3)cc1C [Compound 25.10, 4-((4-Fluoro-3-(1-isopropyl-1H-pyrazol-4-yl)phenyl)((4-(4-methoxy-3-methylphenyl)bicyclo[2.2.2]octan-1-yl)methyl)carbamoyl)cyclohexyl trans-3-((methylsulfonyl)methyl)azetidine-1-carboxylate]
≤ 50 nM | COc1ccc([C@H]2CC[C@H](CN(c3cccc(-c4cnn(C(C)C)c4)c3)C(=O)[C@H]3CC[C@H](OCCCO)CC3)CC2)cc1C [Compound 16, trans-4-(3-Hydroxypropoxy)-N-(3-(1-isopropyl-1H-pyrazol-4-yl)phenyl)-N-((trans-4-(4-methoxy-3-methylphenyl)cyclohexyl)methyl)cyclohexanecarboxamide]
≤ 50 nM | COCCOC(=O)N[C@H]1CC[C@H](C(=O)N(CC23CCC(c4ccc(OC)c(C)c4)(CC2)CC3)c2cc(-c3cnn(C(C)C)c3)ccn2)CC1 [Compound 7.01, (trans)-2-Methoxyethyl (4-((4-(1-isopropyl-1H-pyrazol-4-yl)pyridin-2-yl)((4-(4-methoxy-3-methylphenyl)bicyclo[2.2.2]octan-1-yl)methyl)carbamoyl)cyclohexyl) carbamate]
≤ 50 nM | COc1ncc([C@H]2CC[C@H](CN(c3cc(-c4coc(C5CC5)n4)ccn3)C(=O)[C@H]3CC[C@H](OC(=O)N4CCN(C)CC4)CC3)CC2)cc1C [Compound 1.03, trans-4-((4-(2-Cyclopropyloxazol-4-yl)pyridin-2-yl)(((trans)-4-(6-methoxy-5-methylpyridin-3-yl)cyclohexyl)methyl)carbamoyl)cyclohexyl 4-methylpiperazine-1-carboxylate]
≤ 50 nM | COc1ccc(C23CCC(CN(c4cc(-c5cnc(C6CC6)o5)ccn4)C(=O)[C@H]4CC[C@H](OC(=O)N5CC(O)C5)CC4)(CC2)CC3)cc1C [Compound 4.24, 4-((4-(2-Cyclopropyloxazol-5-yl)pyridin-2-yl)((4-(4-methoxy-3-methylphenyl)bicyclo [2.2.2]octan-1-yl)methyl)carbamoyl) cyclohexyl 3-hydroxyazetidine-trans-1-carboxylate]
